Experimental data published in patent publication US20230180804A1, “FLAVOR COMPOSITION, AND FOOD AND BEVERAGE” (TAKASAGO INTERNATIONAL CORPORATION, priority 2020, published 2023).

Key:
[1] = Sensory evaluation of p-cresol odor masking in p-cresol-containing citrus-flavored beverage; details: for p-Cresol Odor Intensity: beverage with 50 ppb p-cresol, average score of 7 panelists, scale 0-4; for concentration at which the compound masks the p-cresol odor and does not affect the citrus flavor, lower limit / concentration at which the compound masks the p-cresol odor and does not affect the citrus flavor, upper limit: citrus-flavored beverage with 50 ppb p-cresol
Protocol: To 2 g of lemon flavor obtained by making lemon oil into an essence, purified water was added to adjust the total amount to 1000 ml. To this citrus-flavored beverage, p-cresol adjusted to a concentration of 1% by mass with 95% ethanol was added to 50 ppb in the citrus-flavored beverage. To this p-cresol-containing citrus-flavored beverage, 1-oxacycloheptadecan-7-en-2-one was added at the concentrations presented in Table 1 to confirm the p-cresol odor intensity (masking effect) and the influence on the citrus flavor of each sample.
For the test, seven skilled panelists were selected to perform sensory evaluation. The p-cresol odor intensity of the p-cresol-containing citrus-flavored beverage without added l-oxacycloheptadecan-7-en-2-one was determined as “Rating: 4,” and the p-cresol odor intensity of the p-cresol-free citrus-flavored beverage was determined as “Rating: 0,” and the p-cresol odor intensity (masking effect) of each sample was relatively evaluated according to the following evaluation criteria.
In addition, the influence of the citrus-flavored beverage on the citrus flavor was evaluated absolutely according to the following evaluation criteria for the presence or absence of off- flavor other than p-cresol odor and citrus flavor (Off-Flavor Intensity).
The results are as in Table 1, presenting the average score of the evaluation results for each panelist.

[2] = Sensory evaluation of p-cresol odor masking in p-cresol-containing citrus-flavored confectionery (tablet); details: for p-Cresol Odor Intensity: tablet with 200 ppb p-cresol, average score of 6 panelists, scale 0-4; for concentration at which the compound masks the p-cresol odor and does not affect the citrus flavor, lower limit / concentration at which the compound masks the p-cresol odor and does not affect the citrus flavor, upper limit: citrus-flavored confectionery (tablet) with 200 ppb p-cresol
Protocol: Lemon cold-pressed oil was added to the tablet having the composition presented in Table A at a concentration of 1 % by mass, and medium chain fatty acid triglycerides (MCT) was used to adjust p-cresol to a concentration of 0.1%, which was further added so as to reach 200 ppb in the citrus flavored confectionery. To this p-cresol-containing citrus-flavored confectionery, 1-oxacycloheptadecan-7-en-2-one was added at the concentrations presented in Table 12, and then tableting was performed to confirm the p-cresol odor intensity (masking effect) and the influence on the citrus flavor of each sample.
Six skilled panelists were selected to perform the same sensory evaluation as in Example 1. The results are as in Table 12, presenting the average score of the evaluation results for each panelist.

olfactory receptor OR9Q2 = biological target: T1, olfactory receptor OR9Q2 (Homo sapiens, UniProt Q8NGE9); test: OR9Q2 response inhibitory effect for p-cresol, luciferase reporter gene assay; type: cell-based; details: p-cresol 100 µM mixed with various concentrations of compound; cells expressing OR9Q2; ratio of Fold Increase value (FIGS. 1 to 11)
T1 construct: 20 N-terminal amino acid residues of bovine rhodopsin (Rho tag); expressed in transfected cells; host or cells: HEK293T
T1 sequence (Q8NGE9 1-314): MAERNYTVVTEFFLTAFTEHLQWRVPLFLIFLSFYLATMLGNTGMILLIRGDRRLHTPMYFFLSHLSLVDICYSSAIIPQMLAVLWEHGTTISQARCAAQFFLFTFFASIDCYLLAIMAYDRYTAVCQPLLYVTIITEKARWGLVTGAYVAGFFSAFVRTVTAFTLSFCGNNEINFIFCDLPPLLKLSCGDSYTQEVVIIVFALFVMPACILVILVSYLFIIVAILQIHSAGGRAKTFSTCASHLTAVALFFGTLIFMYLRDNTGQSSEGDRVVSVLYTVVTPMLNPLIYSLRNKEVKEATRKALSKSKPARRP
Protocol: The human olfactory receptor gene was obtained by cloning from Human Genomic DNA: Female (Promega) by PCR method based on the sequence information registered in GenBank. The 20 N-terminal amino acid residues of bovine rhodopsin were incorporated into the pME18S vector, and the obtained human olfactory receptor gene was incorporated downstream thereof to obtain a human olfactory receptor gene expression vector.
In 10 µL of Opti-MEM I (gibco), 0.05 µg of human olfactory receptor gene expression vector, 0.01 µg of RTP1S vector, 0.01 µg firefly luciferase vector pGL4.29 (Promega) containing cAMP response element promoter, and 0.005 µg of Renilla luciferase vector pGL4.74 (Promega) containing thymidine kinase promoter were dissolved to prepare a gene solution (for one well). HEK293T cells were seeded at 100 µL each in a 96-well plate (Biocoat, Coming) at the number of cells reaching confluence after 24 hours, and a gene solution was added to each well by the lipofection method according to the usage of Lipofectamine 3000 to introduce genes into the cells, and the cells were cultured at 37° C. in a 5% carbon dioxide atmosphere for 24 hours.
After removing the culture medium, the resultant was prepared with CD293 (gibco) medium ([…] added) so as to have a concentration for measuring the aroma substance to be tested, 50 µL of which was added each and stimulated for 3 hours, and then luciferase activity was measured according to the method of using the Dual-Luciferase Reporter Assay System (Promega). The response intensity of the olfactory receptor polypeptide was expressed as a Fold Increase value obtained by dividing the luciferase activity produced by stimulating the aroma substance by the luciferase activity produced in the test system containing no aroma substance.
p-Cresol at 100 µM was mixed with various concentrations of 1-oxacycloheptadecan-7-en-2-one, 1-oxacycloheptadecan-8-en-2-one, isoambrettolide, pentalide, muscone, civetone, 8-2-decenolactone, cinnamic aldehyde, […], sclareolide, and ethyl maltol, and receptor responses were measured in cells expressing OR9Q2. The ratio of the Fold Increase value in the test in which each compound was mixed was calculated, where the Fold Increase value in the test in none of these compounds was mixed was set to 100. FIGS. 1 to 11 present the results.

[3] = Sensory evaluation of p-cresol odor masking in p-cresol-containing lemon dressing; details: lemon dressing with 500 ppb p-cresol; for p-Cresol Odor Intensity: average score of 9 panelists, scale 0-4
Protocol: To a commercially available lemon dressing, p-cresol adjusted to a concentration of 0.1% with 95% ethanol was added to 500 ppb in the lemon dressing. To this p-cresol-containing lemon dressing, l-oxacycloheptadecan-8-en-2-one was added at the concentrations presented in Table 18 to confirm the p-cresol odor intensity (masking effect) and the influence on the citrus flavor of each sample.
Nine skilled panelists were selected to perform the same sensory evaluation as in Example 1. The results are as in Table 18, presenting the average score of the evaluation results for each panelist.

[4] = Sensory evaluation of p-cresol odor masking in p-cresol-containing grated raw ginger; details: for p-Cresol Odor Intensity: grated ginger with 600 ppb p-cresol, average score of 9 panelists, scale 0-4
Protocol: To commercially available grated raw ginger, p-cresol adjusted to a concentration of 0.1% with 95% ethanol was added to a concentration of 600 ppb in the ginger. To this p-cresol-containing ginger, 1-oxacycloheptadecan-8-en-2-one was added at the concentrations presented in Table 16 to confirm the p-cresol odor intensity (masking effect) and the influence on the ginger flavor of each sample.
Nine skilled panelists were selected to perform the same sensory evaluation as in Example 1. The results are as in Table 16, presenting the average score of the evaluation results for each panelist.

[5] = grated raw ginger with 600 ppb p-cresol

O=C1CCCCC=CCCCCCCCCCO1 [1-Oxacycloheptadecan-7-En-2-One, 1-oxacycloheptadecan-7-en-2-one]
p-Cresol Odor Intensity ([1]; 0.01 ppt added): 3.7 points | p-Cresol Odor Intensity ([1]; 0.1 ppt added): 2.7 points | p-Cresol Odor Intensity ([1]; 1 ppb added): 1.3 points | p-Cresol Odor Intensity ([1]; 1 ppt added): 2.4 points | p-Cresol Odor Intensity ([1]; 10 ppb added): 0.9 points | p-Cresol Odor Intensity ([1]; 10 ppt added): 2.0 points | p-Cresol Odor Intensity ([1]; 100 ppb added): 0.7 points | p-Cresol Odor Intensity ([1]; 100 ppt added): 1.7 points | concentration at which the compound masks the p-cresol odor and does not affect the citrus flavor, lower limit [1]: ≥ 0.1 ppt | concentration at which the compound masks the p-cresol odor and does not affect the citrus flavor, upper limit [1]: ≤ 1 ppb | p-Cresol Odor Intensity ([2]; 4 ppb added): 2.5 points | p-Cresol Odor Intensity ([2]; 40 ppb added): 2.0 points | p-Cresol Odor Intensity ([2]; 40 ppt added): 3.2 points | p-Cresol Odor Intensity ([2]; 400 ppb added): 1.3 points | p-Cresol Odor Intensity ([2]; 400 ppt added): 2.7 points | concentration at which the compound masks the p-cresol odor and does not affect the citrus flavor, lower limit [2]: ≥ 400 ppt | concentration at which the compound masks the p-cresol odor and does not affect the citrus flavor, upper limit [2]: ≤ 400 ppb

C=C1CC[C@H]2O[C@]2(C)CC[C@@H]2[C@@H]1CC2(C)C [β-caryophyllene Oxide, β-caryophyllene oxide]
p-Cresol Odor Intensity ([1]; 1 ppb added): 2.1 points | p-Cresol Odor Intensity ([1]; 1 ppm added): 1.0 points | p-Cresol Odor Intensity ([1]; 10 ppb added): 1.7 points | p-Cresol Odor Intensity ([1]; 10 ppm added): 1.0 points | p-Cresol Odor Intensity ([1]; 10 ppt added): 3.9 points | p-Cresol Odor Intensity ([1]; 100 ppb added): 1.6 points | p-Cresol Odor Intensity ([1]; 100 ppm added): 0.4 points | p-Cresol Odor Intensity ([1]; 100 ppt added): 2.6 points | concentration at which the compound masks the p-cresol odor and does not affect the citrus flavor, lower limit [1]: ≥ 100 ppt | concentration at which the compound masks the p-cresol odor and does not affect the citrus flavor, upper limit [1]: ≤ 1 ppm | effect of suppressing the response of OR9Q2 to p-cresol (olfactory receptor OR9Q2): suppressing the response of OR9Q2 to p-cresol in a concentration-dependent manner

CCc1occc(=O)c1O [Ethyl Maltol, ethyl maltol]
p-Cresol Odor Intensity ([1]; 1 ppb added): 2.3 points | p-Cresol Odor Intensity ([1]; 1 ppm added): 1.4 points | p-Cresol Odor Intensity ([1]; 10 ppb added): 2.0 points | p-Cresol Odor Intensity ([1]; 10 ppm added): 1.3 points | p-Cresol Odor Intensity ([1]; 10 ppt added): 3.7 points | p-Cresol Odor Intensity ([1]; 100 ppb added): 1.6 points | p-Cresol Odor Intensity ([1]; 100 ppm added): 0.4 points | p-Cresol Odor Intensity ([1]; 100 ppt added): 2.7 points | concentration at which the compound masks the p-cresol odor and does not affect the citrus flavor, lower limit [1]: ≥ 100 ppt | concentration at which the compound masks the p-cresol odor and does not affect the citrus flavor, upper limit [1]: ≤ 10 ppm | effect of suppressing the response of OR9Q2 to p-cresol (olfactory receptor OR9Q2): suppressing the response of OR9Q2 to p-cresol in a concentration-dependent manner

ambrettolide
effect of suppressing the response of OR9Q2 to p-cresol (olfactory receptor OR9Q2): suppressing the response of OR9Q2 to p-cresol in a concentration-dependent manner

O=C1CCCCCC=CCCCCCCCCO1 [1-Oxacycloheptadecan-8-En-2-One, 1-oxacycloheptadecan-8-en-2-one]
p-Cresol Odor Intensity ([3]; 1 ppb added): 1.1 points | p-Cresol Odor Intensity ([3]; 1 ppt added): 2.9 points | p-Cresol Odor Intensity ([3]; 10 ppb added): 1.0 points | p-Cresol Odor Intensity ([3]; 10 ppt added): 2.2 points | p-Cresol Odor Intensity ([3]; 100 ppt added): 1.6 points | concentration at which the compound masks the p-cresol odor and does not affect the citrus flavor, lower limit [3]: ≥ 1 ppt | concentration at which the compound masks the p-cresol odor and does not affect the citrus flavor, upper limit [3]: ≤ 10 ppb | p-Cresol Odor Intensity ([1]; 0.01 ppt added): 3.6 points | p-Cresol Odor Intensity ([1]; 0.1 ppt added): 2.9 points | p-Cresol Odor Intensity ([1]; 1 ppb added): 1.1 points | p-Cresol Odor Intensity ([1]; 1 ppt added): 2.6 points | p-Cresol Odor Intensity ([1]; 10 ppb added): 0.7 points | p-Cresol Odor Intensity ([1]; 10 ppt added): 1.9 points | p-Cresol Odor Intensity ([1]; 100 ppb added): 0.4 points | p-Cresol Odor Intensity ([1]; 100 ppt added): 1.4 points | concentration at which the compound masks the p-cresol odor and does not affect the citrus flavor, lower limit [1]: ≥ 0.1 ppt | concentration at which the compound masks the p-cresol odor and does not affect the citrus flavor, upper limit [1]: ≤ 1 ppb | p-Cresol Odor Intensity ([4]; 1 ppb added): 1.7 points | p-Cresol Odor Intensity ([4]; 1 ppt added): 3.2 points | p-Cresol Odor Intensity ([4]; 10 ppb added): 1.4 points | p-Cresol Odor Intensity ([4]; 10 ppt added): 2.4 points | p-Cresol Odor Intensity ([4]; 100 ppt added): 2.3 points | concentration at which the compound masks the p-cresol odor and does not affect the ginger flavor, lower limit [4, 5]: ≥ 10 ppt | concentration at which the compound masks the p-cresol odor and does not affect the ginger flavor, upper limit [4, 5]: ≤ 1 ppb | p-Cresol Odor Intensity ([2]; 4 ppb added): 2.5 points | p-Cresol Odor Intensity ([2]; 40 ppb added): 1.8 points | p-Cresol Odor Intensity ([2]; 40 ppt added): 3.3 points | p-Cresol Odor Intensity ([2]; 400 ppb added): 1.7 points | p-Cresol Odor Intensity ([2]; 400 ppt added): 3.2 points | concentration at which the compound masks the p-cresol odor and does not affect the citrus flavor, lower limit [2]: ≥ 4 ppb | concentration at which the compound masks the p-cresol odor and does not affect the citrus flavor, upper limit [2]: ≤ 400 ppb
